In US20160287558A1, “ORAL PHARMACEUTICAL FORM FOR PREVENTING VASCULAR DISEASES, TABLET AS PHARMACEUTICAL FORM AND GELATIN CAPSULE AS PHARMACEUTICAL FORM” (HYPERMARCAS S.A., priority 2013, published 2016):

How the values were obtained:
[1] = ALLHAT study; cited from earlier work
carbonic anhydrase = details: cited from earlier work
[2] = From the text: The dissolution curves represent the expression of the release mechanism of active principles within the pharmaceutical form. Thus, it is possible to modulate the release to protect the active pharmaceutical principle, besides of improving the solubilization conditions. Excipients are used to optimize the behavior of the active pharmaceutical principle.

solubility in water [2]	Compound	efficacy and prevention of cardiovascular complications compared with other drugs [1]	inhibition of carbonic anhydrase (carbonic anhydrase)
–	NS(=O)(=O)c1cc2c(cc1Cl)NCNS2(=O)=O [hydrochlorothiazide]	as effective as other drugs and further prevents more cardiovascular complications than other drugs	very weak inhibitors
freely soluble	CCCCc1nc(Cl)c(CO)n1Cc1ccc(-c2ccccc2-c2nn[nH]n2)cc1 [losartan]	–	–
